What was measured:
RPE cell cultures [1] = test: Autophagy assays: POS trafficking, colocalization of POS with LC3B; format: cell-based
Protocol: FIGS. 2A and 2B depict photoreceptor outer segment trafficking after treatment with Abeta oligomers in the presence or absence of sigma 2 receptor modulators (FIG. 2A=Compound A and Compound C; FIG. 2B=Compound B).
FIGS. 3A and 3B depict photoreceptor outer segment trafficking after treatment with an oxidative stressor in the presence or absence of sigma 2 receptor modulators (FIG. 3A=Compound A and Compound C; FIG. 3B=Compound B).
Autophagy Assays: Autophagy assays were performed in accordance with Klionsky et al., “Guidelines for the Use and Interpretation of Assays for Monitoring Autophagy,” (4th edition) Autophagy 2021; 17:1-382, which is hereby incorporated by reference in its entirety. RPE cultures were treated with human oligomeric Aβ in either the presence or absence of compounds of the invention. POS trafficking was measured over time after the addition of POS to RPE cell cultures. Stressors included addition of Aβ oligomers or H2O2 for 12 to 48 hours. […] This process was disrupted by addition of stressors such as Aβ oligomers (FIGS. 2A and 2B) or oxidative stress (FIGS. 3A and 3B).

retinal ganglion cells [2] = test: In vivo model of glaucoma: pattern electroretinogram (PERG); conditions: p<0.05 (FIGS. 9A and 9B)
Description: FIGS. 9A and 9B depict quantification of electrical activity in retinal ganglion cells in an in vivo model of glaucoma in the presence or absence of sigma-2 receptor modulator.
(§1) In vivo models of glaucoma (Shah, M., et al., “Translational Preclinical Pharmacologic Disease Models for Opthalmic Drug Development,” Development. Pharm. Res. 36(4): 58 (2019); which is hereby incorporated by reference in its entirety) were used to test the utility of sigma-2 receptor modulators.
Glaucoma can cause perturbations in the electrical activity of the retina. To measure the electrical activity, a pattern electroretinogram (PERG) measure electrical activity of the retina in response to a test stimulus, such as a reversing checkerboard. PERG is a noninvasive, direct, and objective method to assess retinal ganglion cell function. An in vivo model of glaucoma causes a functional deficit in retinal ganglion cells (injured vs. naïve), resembling what is seen in patients with glaucoma and other retinal diseases.

RPE cell cultures [3] = test: Quantification of an autophagy related protein after oxidative stressor; format: cell-based; conditions: after oxidative stressor (FIG. 4)
Description: FIG. 4 depicts quantification of an autophagy-related protein after oxidative stress by an oxidative stressor in the presence or absence of sigma-2 receptor modulators.
Oxidative stressors are associated with pathology in AMD with changes seen in autophagy associated proteins. Application of an oxidative stressor caused increased expression of an autophagy related protein acutely (FIG. 4).

sigma-2 receptors = target: T1, sigma-2 receptors (Mus musculus, UniProt Q8VD00); test: Drug concentration in plasma, brain and retina; format: in vivo
T1 sequence (Q8VD00 1-176): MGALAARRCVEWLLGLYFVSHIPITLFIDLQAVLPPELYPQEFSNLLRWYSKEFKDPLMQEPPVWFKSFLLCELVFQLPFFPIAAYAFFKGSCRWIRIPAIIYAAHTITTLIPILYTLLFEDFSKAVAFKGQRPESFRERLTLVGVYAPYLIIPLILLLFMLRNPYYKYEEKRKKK
Protocol: FIG. 6 depicts quantification of the concentration of the sigma-2 receptor modulator Compound A in mouse plasma, brain, and retina.
FIG. 7 depicts quantification of the concentration of the sigma-2 receptor modulator, Compound B, in mouse plasma, brain and retina.
Following a single oral administration of [14C]-Compound A to a rat, autoradiography was performed to determine tissue distribution. […] Receptor occupancy exceeding 80% confers efficacy in vivo. Drug concentration in the brain (cerebellum), retina, and plasma were also measured. […] Similarly, following a single orally administered dose, Compound B was found in concentrations that exceeded 80% receptor occupancy at sigma-2 receptors in the retina and plasma and approximately 50% occupancy in the brain (FIG. 7).

retinal ganglion cells [4] = test: In vivo model of glaucoma: retinal ganglion cell counts; conditions: p<0.05 (FIG. 8)
Description: FIG. 8 depicts quantification of retinal ganglion cell density in an in vivo model of glaucoma in the presence or absence of sigma-2 receptor modulator.
as §1
To test whether sigma-2 receptor modulators can rescue cell death, in vivo models were used to cause cell death of retinal ganglion cells, resembling what is seen in patients with glaucoma and other retinal diseases.

[5] = oxidative stress, H2O2 (FIGS. 3A and 3B)
[6] = stressor Aβ oligomers (FIGS. 2A and 2B)

SMILES	POS trafficking into autophagosomes (colocalization of POS with LC3B) (RPE cell cultures [1]; [5])	POS trafficking into autophagosomes (colocalization of POS with LC3B) (RPE cell cultures [1]; [6])	retinal ganglion cell function (PERG electrical activity) (retinal ganglion cells [2])	expression of an autophagy related protein (RPE cell cultures [3])	concentration in the retina relative to brain (cerebellum) and plasma (sigma-2 receptors; mouse (FIG. 6))	occupancy at sigma-2 receptors in the brain (sigma-2 receptors; mouse (FIG. 7), single orally administered dose)	retinal ganglion cell counts (retinal ganglion cells [4])
CC(C)(C)Oc1cc(CCC(C)(C)N2Cc3ccc(S(C)(=O)=O)cc3C2)ccc1O [Compound A]	restored normal trafficking into autophagosomes after stress	restored normal trafficking into autophagosomes after stress	preserves retinal ganglion cell function	prevented the increase in this autophagy related protein	higher than the concentration in the brain or plasma	–	–
CC1(O)CCN(CCC(C)(C)c2ccc(C(F)(F)F)cc2)CC1 [Compound B]	–	–	–	–	–	approximately 50%	significantly preserved retinal ganglion cells counts
CC(C)=C[C@@H](CC(C)(C)c1ccc(C(F)(F)F)cc1)N1CCC(C2CCOCC2)CC1 [Compound C]	restored normal trafficking into autophagosomes after stress	restored normal trafficking into autophagosomes after stress	–	prevented the increase in this autophagy related protein	–	–	–

— patent US20240009168A1 (Cognition Therapeutics, Inc., priority 2020, published 2024)
